The target of one assay is human TRPA1 (Homo sapiens (Human), UniProt O75762). Briefly: In vitro inhibition of human TRPA1, whole cell patch configuration. The note with it: current activation 10 μM AITC, tested concentrations 320 pM to 3.2 μM, read-out: hTRPA1 IC50. Type of assay: cell-based. In short, it runs like this: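 Compound antagonism measured from voltage ramps (±100 or ±80 mV, 400 ms, every 4 s from −40 mV), analysed at −80 and 80 mV, or at constant −60 mV. HEPES-buffered NaCl bath, pH 7.4, EGTA or 2 mM Ca2+; temperature set by perfusion, within ±2° C; no junction-potential correction.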
Sequence of human TRPA1 (O75762 whole entry, the tested form may be a part): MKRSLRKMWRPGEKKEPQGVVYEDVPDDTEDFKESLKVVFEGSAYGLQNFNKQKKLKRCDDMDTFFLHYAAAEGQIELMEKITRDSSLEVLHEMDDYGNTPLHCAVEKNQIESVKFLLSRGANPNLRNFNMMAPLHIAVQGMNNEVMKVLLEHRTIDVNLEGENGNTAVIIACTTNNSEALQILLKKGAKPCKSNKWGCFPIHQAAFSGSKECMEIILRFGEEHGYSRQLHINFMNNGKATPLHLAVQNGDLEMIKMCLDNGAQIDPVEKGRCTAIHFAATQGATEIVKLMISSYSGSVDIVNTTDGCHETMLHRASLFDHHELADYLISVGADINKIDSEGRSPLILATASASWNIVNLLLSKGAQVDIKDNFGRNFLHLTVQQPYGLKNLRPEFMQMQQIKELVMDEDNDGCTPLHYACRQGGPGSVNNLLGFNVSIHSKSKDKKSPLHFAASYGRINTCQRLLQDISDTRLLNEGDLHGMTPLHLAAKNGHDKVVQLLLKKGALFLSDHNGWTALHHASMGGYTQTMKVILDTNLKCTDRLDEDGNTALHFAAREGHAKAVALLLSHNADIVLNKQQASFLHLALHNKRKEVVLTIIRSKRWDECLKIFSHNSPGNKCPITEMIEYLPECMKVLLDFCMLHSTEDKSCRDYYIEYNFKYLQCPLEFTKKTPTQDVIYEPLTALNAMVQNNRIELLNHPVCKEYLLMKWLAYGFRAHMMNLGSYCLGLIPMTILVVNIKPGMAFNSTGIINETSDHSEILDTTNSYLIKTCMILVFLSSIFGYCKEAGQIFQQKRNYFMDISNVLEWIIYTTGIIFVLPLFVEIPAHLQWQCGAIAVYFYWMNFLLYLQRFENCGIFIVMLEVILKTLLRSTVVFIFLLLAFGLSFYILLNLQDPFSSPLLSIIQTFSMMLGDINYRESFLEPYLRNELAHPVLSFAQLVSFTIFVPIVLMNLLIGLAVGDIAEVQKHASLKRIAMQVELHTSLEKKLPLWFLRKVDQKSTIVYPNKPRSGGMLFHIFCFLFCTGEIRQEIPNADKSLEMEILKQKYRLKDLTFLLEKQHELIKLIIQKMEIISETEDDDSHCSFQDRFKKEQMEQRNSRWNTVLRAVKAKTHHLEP

The subject of assay [1] is formalin-induced pain behaviors in the rat. Nature of the assay: Formalin-induced pain test (formalin model), duration of pain behaviors. Type of assay: in vivo. An outline of the steps: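 Rats dosed orally with vehicle or compound (solutions with DMSO, Solutol, Labrasol, Tween-80, Cremophor EL, or methylcellulose suspensions) one hour before intraplantar injection of 50 μL 3% formalin into hind paw. Duration of pain behaviors counted by blinded observer; Phase I covers 0-5 min; comparison to vehicle.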

For assay [2], the system named is CFA-induced cold hypersensitivity of the hind paw. Nature of the assay: CFA-induced pain test, cold hypersensitivity (cold plate paw withdrawal latency). Type of assay: in vivo. The note with it: cold plate 1° C., solution in 4% DMSO, 5% Tween-80; for Average PWL Post-Treatment / PWL Change: 1-2 hour pre-treatment; for Average PWL Post-CFA: baseline before dosing.

Where [3] appears, read: 1 mg/kg PO one hour prior to formalin, solution in 4% DMSO, 5% Tween-80, 25% Cremophor EL, 66% water.
Where [4] appears, read: 1 mg/kg PO one hour prior to formalin, solution in 8% DMSO and 92% Labrasol.
[5] abbreviates: 3 mg/kg PO one hour prior to formalin, solution in 4% DMSO, 5% Tween-80, 25% Cremophor EL, 66% water.
[6] abbreviates: 3 mg/kg PO one hour prior to formalin, solution in 8% DMSO and 92% Labrasol.
[7] abbreviates: 10 mg/kg PO one hour prior to formalin, solution in 4% DMSO, 5% Tween-80, 25% Cremophor EL, 66% water.
Setting [8] is: 10 mg/kg PO one hour prior to formalin, solution in 8% DMSO and 92% Labrasol.
[9] abbreviates: 30 mg/kg PO one hour prior to formalin, solution in 8% DMSO and 92% Labrasol.
[10] abbreviates: 1 mg/kg PO, 25% Cremophor EL, and 66% water.
Setting [11] is: 3 mg/kg PO, 25% Cremophor EL, and 66% water.
Setting [12] is: 10 mg/kg PO, 25% Cremophor EL, and 66% water.
[13] abbreviates: 1 mg/kg PO one hour prior to formalin, solution in 4% DMSO, 5% Tween-80, 20% Cremophor EL, 71% water.
Where [14] appears, read: 3 mg/kg PO one hour prior to formalin, solution in 4% DMSO, 5% Tween-80, 20% Cremophor EL, 71% water.
Where [15] appears, read: 10 mg/kg PO one hour prior to formalin, solution in 4% DMSO, 5% Tween-80, 20% Cremophor EL, 71% water.
Where [16] appears, read: 0.3 mg/kg PO, 20% Cremophor EL, and 71% water.
The mark [17] stands for this setting: 1 mg/kg PO, 20% Cremophor EL, and 71% water.
Where [18] appears, read: 3 mg/kg PO, 20% Cremophor EL, and 71% water.

Here are results for 2 compounds from US10221177B2 (HYDRA BIOSCIENCES, INC., priority 2014, dated 2019).

pIC50: −log10 of the molar value. Several values for one entry are separate records, joined by “and”; a condition that tells them apart may be missing. Equal values may be shown once.

On to `CC(=O)Cn1c(=O)c2c(ncn2[C@@H](C)C(=O)Nc2csc(-c3cnc(N4CC5CC5C4)nc3)n2)n(C)c1=O` (stereo partly drawn) [Compound 153, (2S)—N-(2-(2-(3-azabicyclo[3.1.0]hexan-3-yl)pyrimidin-5-yl)thiazol-4-yl)-2-(3-methyl-2,6-dioxo-1-(2-oxopropyl)-2,3-dihydro-1H-purin-7(6H)-yl)propanamide], for which the pIC50 on human TRPA1 was 8.70. The “Duration (0-2 Minutes) Average” value in assay [1] (setting [3]) was 71.4 s; in assay [1] (setting [4]) it was 84.5 s; in assay [1] (setting [5]) it was 81.5 s; in assay [1] (setting [6]), 86.4 s; in assay [1] (setting [7]), 50.1 s; in assay [1] (setting [8]) it was 87.9 s. For the same compound, the “Duration (0-2 Minutes) Average” value in assay [1] (setting [9]) was 31.9 s and 52.8 s. The “Duration (0-5 Minutes) Average” value in assay [1] (setting [3]) worked out at 164.6 s; in assay [1] (setting [4]), 172.5 s; in assay [1] (setting [5]), 216.9 s; in assay [1] (setting [6]), 198.8 s; in assay [1] (setting [7]) it was 160.3 s; in assay [1] (setting [8]), 214.6 s. In assay [1] (setting [9]), the “Duration (0-5 Minutes) Average” value is 173.1 s and 173.4 s. In addition, the “Average PWL Post-Treatment” value in assay [2] (setting [10]) amounted to 178.1; in assay [2] (setting [11]) it was 223.6; in assay [2] (setting [12]), 247.1. The “PWL Change” value in assay [2] (setting [10]) amounted to 85.6 s; in assay [2] (setting [11]) it was 130.8 s; in assay [2] (setting [12]) it was 154.3 s. For the same compound, the “Average PWL Post-CFA” value in assay [2] (group 1 mg/kg PO, 25% Cremophor EL, and 66% water) was 92.5; in assay [2] (group 3 mg/kg PO, 25% Cremophor EL, and 66% water), 92.8; in assay [2] (group 10 mg/kg PO, 25% Cremophor EL, and 66% water) it was 92.7.

Turning to `Cc1noc(Cn2c(=O)c3c(ncn3[C@@H](C)C(=O)Nc3cncc(-c4cnc(C(F)(F)F)nc4)n3)n(C)c2=O)n1` [Compound 160, (S)-2-(3-methyl-1-((3-methyl-1,2,4-oxadiazol-5-yl)methyl)-2,6-dioxo-2,3-dihydro-1H-purin-7(6H)-yl)-N-(6-(2-(trifluoromethyl)pyrimidin-5-yl)pyrazin-2-yl)propanamide], the pIC50 at human TRPA1 was 7.70. The “Duration (0-2 Minutes) Average” value in assay [1] (setting [13]) is 68.6 s; in assay [1] (setting [14]), 78.1 s; in assay [1] (setting [15]) it was 42.5 s. For the same compound, the “Duration (0-5 Minutes) Average” value in assay [1] (setting [13]) was determined as 167.3 s; in assay [1] (setting [14]), 232.0 s; in assay [1] (setting [15]), 150.4 s. Further, the “Average PWL Post-Treatment” value in assay [2] (setting [16]) is reported as 173.0; in assay [2] (setting [17]), 269.6; in assay [2] (setting [18]), 253.6. The “PWL Change” value is given as 64.7 s in assay [2] (setting [16]), 161.5 s in assay [2] (setting [17]) and 146.2 s in assay [2] (setting [18]). In addition, the “Average PWL Post-CFA” value was 108.2 in assay [2] (group 0.3 mg/kg PO, 20% Cremophor EL, and 71% water); 108.1 in assay [2] (group 1 mg/kg PO, 20% Cremophor EL, and 71% water); 107.5 in assay [2] (group 3 mg/kg PO, 20% Cremophor EL, and 71% water).
